Reference: US8163718B2, “Nucleoside analogues containing phosphonate or phosphonamide groups” (Gilead Sciences, Inc., priority 2008, dated 2012)

Experiments:
Experiment in all cases: Cytostatic cell culture assay (GI50), SRB
Assay type in all cases: cell-based
Conditions in all cases: 5 days incubation
[1] = system: A549
Description: (§1) The assay is based on quantification of cell counts by a colorimetric detection of the cell associated proteins. The assay relies on the ability of sulforhodamine B (SRB) to bind to protein components of cells that have been fixed to tissue-culture plates by trichloroacetic acid (TCA). SRB is a bright-pink aminoxanthene dye with two sulfonic groups that bind to basic amino-acid residues under mild acidic conditions, and dissociate under basic conditions. As the binding of SRB is stoichiometric, the amount of dye extracted from stained cells is directly proportional to the cell mass.
(§2) Cell lines: All cell lines were obtained from ATCC (Manassas, Va.). Cultivation media containing Glutamax, and trypsin were purchased from Invitrogen (Carlsbad, Calif.). Doxorubicin, Clofarabine, TCA and SRB were from Sigma-Aldrich (St. Louis, Mo.). Gemcitabine was obtained from Moravek Biochemicals (Brea, Calif.)
(§3) • 1. Trypsinize the sub-confluent cells, count them, and adjust the cell concentrations according to the cell counts listed in Table 1. • 2. Distribute the cells into the 96-well plates in 150 μL of media. Incubate the plates overnight in humidified CO2 incubator at 37° C. • 3. Fix one plate of each cell line with TCA. Discard the cultivation media from the plates by flicking them gently and add 100 ul cold 10% (vol/vol) TCA to each well. Incubate the plates at 4 degree refrigerator for 1 hour. Discard TCA from the plates by flicking them gently. Rinse plates four times in a washing basin containing tap water. Store the plates at room temperature. These plates represent cell counts on day zero. • 4. Prepare a set of medium solutions containing various concentrations of tested compounds by making 5-fold serial dilutions in 96-well plate. Add 50 μL of the diluted compounds per well. Include controls with untreated cells and cells treated with doxorubicin, clofarabine and gemcitabine. • 5. Incubate the plates for 5 days at 37° C. • 6. Fix the plates with TCA. Discard the cultivation media from the plates by flicking them gently and add 100 ul cold 10% (vol/vol) TCA to each well. Incubate the plates at 4 degree refrigerator for 1 hour. Discard TCA from the plates by flicking them gently. Rinse plates four times in a washing basin containing tap water. • 7. Remove excess water by tapping the plates face down, gently on a paper towel. Allow the plates to air-dry at room temperature. • 8. Add 100 ul of 0.057% SRB solution in 1% (vol/vol) acetic acid to each well of the plates fixed with TCA on day zero and five. Leave at room temperature for 30 minutes. • 9. Flick the plates gently to discard SRB. Rinse the plates four times with 1% (vol/vol) Acetic Acid. • 10. Store the plates at 37 degree incubator to facilitate faster drying. • 11. Once the plates are completely dry, add 200 ul of 10 mM Tris base solution (pH 10.5) to each well. Leave at room temperature for 30 minutes for SRB to solubilize. • 12. Measure the OD at 500 nm in a microplate reader • 13. Calculate the percentage of cell-growth inhibition using the next formula: % of control cell growth=100×(ODsample−mean ODday0)/(ODneg control−mean ODday0)
(§4) For GI50 determination, plot a dose-response curve between the compound concentration and percent of growth inhibition. GI50 values can be derived by fitting dose-response curves using sigmoidal dose response equation.

[2] = system: NCI-H23
Description: as §1, §2, §3, §4

[3] = system: BT-549
Description: as §1, §2, §3, §4

[4] = system: HCT-116
Description: as §1, §2, §3, §4

[5] = system: HCT-15
Description: as §1, §2, §3, §4

[6] = system: Du-145
Description: as §1, §2, §3, §4

[7] = system: Hs-578
Description: as §1, §2, §3, §4

[8] = system: PC3
Description: as §1, §2, §3, §4

Structure (SMILES) | GI50 [1] [nM] | GI50 ([2]; Homo sapiens, NCI-H23, 120 h) [nM] | GI50 ([3]; Homo sapiens, BT-549, 120 h) [nM] | GI50 [4] [nM] | GI50 ([5]; Homo sapiens, HCT-15, 120 h) [nM] | GI50 ([6]; Homo sapiens, DU-145, 120 h) [nM] | GI50 [7] [nM] | GI50 [8] [nM] | GI50 [2] [nM] | GI50 [3] [nM] | GI50 [5] [nM] | GI50 [6] [nM] | GI50 ([1]; Homo sapiens, A549, 120 h) [nM] | GI50 ([4]; Homo sapiens, HCT-116, 120 h) [nM] | GI50 ([7]; Hs578, 120 h) [nM] | GI50 ([8]; Homo sapiens, PC-3, 120 h) [nM]
CCCCOC(=O)[C@H](C)NP(=O)(COCCn1cnc2c(OCCC)nc(N)nc21)Oc1ccccc1 (single isomer, unassigned) [Example 52a] | 48 | 0.9 | 105 | 43 | 553 | 0.3 | 13 | 8 | – | – | – | – | – | – | – | –
CCCCOC(=O)[C@H](C)NP(=O)(COCCn1cnc2c(OCCC)nc(N)nc21)Oc1ccccc1 (single isomer, unassigned) [Example 52b] | 15 | – | – | 11 | – | – | 2 | 3 | 1 | 100 | 517 | 0.3 | – | – | – | –
CCCOc1nc(N)nc2c1ncn2CCOCP(=O)(N[C@@H](C)C(=O)OCC)Oc1ccccc1 (single isomer, unassigned) [Example 53a] | 268 | – | – | 154 | 2110 | – | 62 | 31 | 5 | 249 | – | 2 | – | – | – | –
CCCOc1nc(N)nc2c1ncn2CCOCP(=O)(N[C@@H](C)C(=O)OCC)Oc1ccccc1 (single isomer, unassigned) [Example 53b] | 647 | – | – | 329 | – | – | 177 | 180 | 70 | 564 | 2040 | 14 | – | – | – | –
CCCOc1nc(N)nc2c1ncn2CCOCP(=O)(O)O [Example 1, [2-(2-Amino-6-propoxy-purin-9-yl)-ethoxymethyl]-phosphonic acid] | – | 287 | 900 | – | 886 | 76 | – | – | – | – | – | – | 1240 | 1100 | 3810 | 1100
COc1nc(N)nc2c1ncn2CCOCP(=O)(O)O [Example 2, [2-(2-Amino-6-methoxy-purin-9-yl)-ethoxymethyl]-phosphonic acid] | – | 589 | 4870 | – | 4650 | 475 | – | – | – | – | – | – | 2420 | 5900 | 2010 | 3700
CC(C)Oc1nc(N)nc2c1ncn2CCOCP(=O)(O)O [Example 3, [2-(2-Amino-6-isopropoxy-purin-9-yl)-ethoxymethyl]-phosphonic acid] | – | 551 | 2480 | – | 2530 | 177 | – | – | – | – | – | – | 2980 | 2440 | 2450 | 1380
CCCCOc1nc(N)nc2c1ncn2CCOCP(=O)(O)O [Example 4, [2-(2-Amino-6-butoxy-purin-9-yl)-ethoxymethyl]-phosphonic acid] | – | 633 | 3760 | – | 2980 | 235 | – | – | – | – | – | – | 4540 | 3130 | 3320 | 1440
CCOc1nc(N)nc2c1ncn2CCOCP(=O)(O)O [Example 5, [2-(2-Amino-6-ethoxy-purin-9-yl)-ethoxymethyl]-phosphonic acid] | – | 639 | 2000 | – | 2440 | 223 | – | – | – | – | – | – | 2840 | 3590 | 2590 | 2480
Nc1nc(OC2CCCCC2)c2ncn(CCOCP(=O)(O)O)c2n1 [Example 6, [2-(2-Amino-6-cyclohexyloxy-purin-9-yl)-ethoxymethyl]-phosphonic acid] | – | 6000 | 17000 | – | 13000 | 439 | – | – | – | – | – | – | > 10000 | > 10000 | 11000 | 3010
CCCCCOc1nc(N)nc2c1ncn2CCOCP(=O)(O)O [Example 7, [2-(2-Amino-6-pentyloxy-purin-9-yl)-ethoxymethyl]-phosphonic acid] | – | 596 | 2570 | – | 2610 | 101 | – | – | – | – | – | – | 3360 | 2450 | 1570 | 595
Nc1nc(OC2CC2)c2ncn(CCOCP(=O)(O)O)c2n1 [Example 8, [2-(2-Amino-6-cyclopropoxy-purin-9-yl)-ethoxymethyl]-phosphonic acid] | – | 675 | 2710 | – | 4140 | 536 | – | – | – | – | – | – | 2820 | 5400 | 3340 | 2830
Nc1nc(OC2CCC2)c2ncn(CCOCP(=O)(O)O)c2n1 [Example 9, [2-(2-Amino-6-cyclobutoxy-purin-9-yl)-ethoxymethyl]-phosphonic acid] | – | 359 | 1550 | – | 1220 | 77 | – | – | – | – | – | – | 1830 | 1720 | 1550 | 955
Nc1nc(OC2CCCC2)c2ncn(CCOCP(=O)(O)O)c2n1 [Example 10, [2-(2-Amino-6-cyclopentyloxy-purin-9-yl)-ethoxymethyl]-phosphonic acid] | – | 603 | 2990 | – | 2380 | 54 | – | – | – | – | – | – | 3060 | 1790 | 2260 | 1010
CCCCOC(=O)[C@H](C)NP(=O)(COCCn1cnc2c(OCCCC)nc(N)nc21)N[C@@H](C)C(=O)OCCCC [Example 36] | – | 2 | 120 | – | 869 | – | – | – | – | – | – | – | 13 | 7 | 11 | 3
CCCCOC(=O)[C@H](C)NP(=O)(COCCn1cnc2c(OC3CC3)nc(N)nc21)N[C@@H](C)C(=O)OCCCC [Example 43] | – | 1 | 17 | – | 1520 | – | – | – | – | – | – | – | 102 | 11 | 32 | 32
